Source: patent US7491714B2 (dated 2009)

Row | Structure (SMILES) | melting point [°C]
1 | COc1ccc2nccc([C@@H]3CN(CCCNS(=O)(=O)c4ccc5c(c4)NC(=O)CCS5)C(=O)O3)c2c1 | 128 to 130
2 | COc1ccc2nccc([C@@H]3CN(CCCNS(=O)(=O)c4ccc5c(c4)NC(=O)CO5)C(=O)O3)c2c1 | 150 to 155
